These results are taken from patent US8754242B2, “Herbicides” (Syngenta Crop Protection LLC, priority 2007, dated 2014).

What all share (assay type): in vivo
For test [1], the system named is Alopecurus myosuroides (ALOMY). The experiment in a line: Test Example 1 pre-emergence herbicidal activity. The conditions noted are these: Alopecurus myosuroides, 480 h, rate 250 g/ha, evaluated 20 days later, read-out: Pre-emergence activity ALOMY (100=total damage to plant; 0=no damage to plant). The gist of the method: (§1)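 Greenhouse pot test; spray application pre-emergence (1 d after sowing) or post-emergence (10 d growth). Rating 0–100% damage; pre read at 20 d, post at 15 d.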

The subject of test [2] is Echinochloa crus-galli (ECHCG). The experiment in a line: Test Example 1 pre-emergence herbicidal activity. The note with it: Echinochloa crus-galli, 480 h, rate 250 g/ha, evaluated 20 days later, read-out: Pre-emergence activity ECHCG (100=total damage to plant; 0=no damage to plant). In outline:
as §1

Test [3] relates to Avena fatua (AVEFA). Briefly: Test Example 1 pre-emergence herbicidal activity. The note with it: Avena fatua, 480 h, rate 250 g/ha, evaluated 20 days later, read-out: Pre-emergence activity AVEFA (100=total damage to plant; 0=no damage to plant). The gist of the method:
as §1

Test [4] concerns Lolium perenne (LOLPE). Briefly: Test Example 1 pre-emergence herbicidal activity. The note with it: Lolium perenne, 480 h, rate 250 g/ha, evaluated 20 days later, read-out: Pre-emergence activity LOLPE (100=total damage to plant; 0=no damage to plant). The gist of the method:
as §1

Test [5] relates to Digitaria sanguinalis (DIGSA). Briefly: Test Example 1 pre-emergence herbicidal activity. The conditions noted are these: Digitaria sanguinalis, 480 h, rate 250 g/ha, evaluated 20 days later, read-out: Pre-emergence activity DIGSA (100=total damage to plant; 0=no damage to plant). The gist of the method: as §1
The subject of test [6] is Setaria faberi (SETFA). Briefly: Test Example 1 pre-emergence herbicidal activity. The note with it: Setaria faberi, 480 h, rate 250 g/ha, evaluated 20 days later, read-out: Pre-emergence activity SETFA (100=total damage to plant; 0=no damage to plant). In outline:
as §1

Test [7] relates to Alopecurus myosuroides (ALOMY). The experiment in a line: Test Example 1 post-emergence herbicidal activity. The note with it: 360 h, rate 125 g/ha, evaluated 15 days later, read-out: Post-emergence activity ALOMY (100=total damage to plant; 0=no damage to plant). The gist of the method: as §1
In test [8] the test system is Echinochloa crus-galli (ECHCG). The experiment in a line: Test Example 1 post-emergence herbicidal activity. The note with it: 360 h, rate 125 g/ha, evaluated 15 days later, read-out: Post-emergence activity ECHCG (100=total damage to plant; 0=no damage to plant). The gist of the method:
as §1

Test [9] deals with Avena fatua (AVEFA). The experiment in a line: Test Example 1 post-emergence herbicidal activity. The note with it: 360 h, rate 125 g/ha, evaluated 15 days later, read-out: Post-emergence activity AVEFA (100=total damage to plant; 0=no damage to plant). The gist of the method: as §1
Test [10] concerns Lolium perenne (LOLPE). The experiment in a line: Test Example 1 post-emergence herbicidal activity. The conditions noted are these: 360 h, rate 125 g/ha, evaluated 15 days later, read-out: Post-emergence activity LOLPE (100=total damage to plant; 0=no damage to plant). In outline:
as §1

Test [11] relates to Digitaria sanguinalis (DIGSA). Briefly: Test Example 1 post-emergence herbicidal activity. The note with it: 360 h, rate 125 g/ha, evaluated 15 days later, read-out: Post-emergence activity DIGSA (100=total damage to plant; 0=no damage to plant). The gist of the method: as §1
In test [12] the test system is Setaria faberi (SETFA). Briefly: Test Example 1 post-emergence herbicidal activity. The note with it: 360 h, rate 125 g/ha, evaluated 15 days later, read-out: Post-emergence activity SETFA (100=total damage to plant; 0=no damage to plant). In outline:
as §1

Molecules are shown by their SMILES.

For the compound `CCc1ccc(Br)cc1C1=C(O)[C@H]2[C@@H](C1=O)[C@@H]1CC[C@H]2O1` [Example T134], the pest or weed control at 250 g/ha in [1] is 60%; in [2], 20%; in [3] it was 20%; in test [4], 70%; in [5], 50%; in test [6], 0%. Further, the pest or weed control at 125 g/ha in test [7] was found to be 20%; in [8], 70%; in [9], 20%; in test [10], 20%; in test [11], 20%; in test [12] it was 50%.
Consider `CCc1cc(C)cc(CC)c1C1=C(O)[C@H]2[C@@H](C1=O)[C@@H]1CC[C@@]2(COCC#N)O1` [Example T27], for which the pest or weed control at 250 g/ha in test [1] stood at 70%; in test [2] it was 100%; in test [3] it was 70%; in test [4] it was 70%; in test [5], 90%; in test [6] it was 100%. Further, the pest or weed control at 125 g/ha in [7] worked out at 100%; in [8], 100%; in test [9], 90%; in test [10] it was 80%; in test [11], 100%; in test [12], 100%.
Regarding `CCCNC(=O)OC[C@]12CC[C@H](O1)[C@@H]1C(=O)C(c3c(CC)cc(C)cc3CC)=C(O)[C@@H]12` [Example T21], the pest or weed control at 250 g/ha in test [1] was found to be 90%; in test [2], 80%; in test [3], 30%; in test [4] it was 80%; in test [5], 10%; in test [6], 70%. In addition, the pest or weed control at 125 g/ha was 90% in test [7]; 100% in test [8]; 70% in test [9]; 70% in test [10]; 30% in test [11]; 60% in test [12].
For the compound `Cc1cc(C)c(C2=C(O)[C@@H]3[C@@H]4O[C@@H](C[C@H]4/C=C/c4ccccc4)[C@@H]3C2=O)c(C)c1` [Example T98], the pest or weed control at 250 g/ha in test [1] was found to be 30%; in test [2], 30%; in test [3], 20%; in test [4], 20%; in test [5] it was 0%; in test [6] it was 70%. Moreover, the pest or weed control at 125 g/ha in test [7] was determined as 70%; in test [8], 80%; in test [9], 20%; in [10], 40%; in test [11], 60%; in test [12] it was 70%.
As for `CCOC[C@]12CC[C@H](O1)[C@@H]1C(=O)C(c3c(CC)cc(C)cc3CC)=C(O)[C@@H]12` [Example T18], the pest or weed control at 250 g/ha in test [1], in [2], in test [3], in test [4], in test [5] and in [6] was 100% throughout. Also, the pest or weed control at 125 g/ha is 100% in test [7]; 100% in test [8]; 100% in test [9]; 80% in test [10]; 100% in test [11]; 100% in test [12].
Turning to `Cc1cc(C)c(C2=C(O)[C@@H]3[C@@H]4O[C@@H](C[C@H]4c4cnccn4)[C@@H]3C2=O)c(C)c1` [Example T187], the pest or weed control at 250 g/ha in test [1] was 10%; in [2] it was 10%; in test [3], 20%; in test [4], 60%; in [5], 20%; in test [6] it was 40%. Further, the pest or weed control at 125 g/ha is 70% in test [7]; 70% in test [8]; 10% in [9]; 40% in [10]; 60% in test [11]; 60% in test [12].
As to `C#CCOC(=O)OC1=C(c2c(CC)cc(C)cc2CC)C(=O)[C@@H]2[C@H]1[C@H]1CC[C@@H]2O1` (racemic) [Example P25], the pest or weed control at 250 g/ha in test [1], in test [2], in [3], in test [4], in test [5] and in [6] was 100% throughout. Further, the pest or weed control at 125 g/ha in [7] stood at 100%; in [8], 100%; in test [9] it was 90%; in test [10], 100%; in [11] it was 80%; in test [12], 80%.
For `Cc1cc(C)c(C2=C(O)[C@@H]3[C@@H]4O[C@@H](C[C@H]4c4ccc([N+](=O)[O-])cc4)[C@@H]3C2=O)c(C)c1` [Example T90], the pest or weed control at 250 g/ha amounted to 10% in [1]; 70% in test [2]; 60% in test [3]; 20% in test [4]; 60% in [5]; 40% in [6]. Besides, the pest or weed control at 125 g/ha in test [7] is 90%; in [8] it was 80%; in test [9], 80%; in test [10] it was 60%; in [11], 80%; in test [12] it was 60%.
With `CCc1cc(C)cc(CC)c1C1=C(OC(=O)CC(C)C)[C@H]2[C@@H](C1=O)[C@@H]1CC[C@H]2O1` [Example P19], the pest or weed control at 250 g/ha in test [1], in [2], in test [3], in test [4], in test [5] and in [6] was 100% throughout. In addition, the pest or weed control at 125 g/ha in [7], in test [8], in test [9], in test [10], in [11] and in [12] was 100% in each case.
As to `COC[C@H]1C[C@@H]2O[C@H]1[C@H]1C(O)=C(c3c(C)cc(C)cc3C)C(=O)[C@H]12` [Example T47], the pest or weed control at 250 g/ha was found to be 100% in test [1]; 100% in test [2]; 80% in [3]; 100% in test [4]; 70% in [5]; 80% in test [6]. Further, the pest or weed control at 125 g/ha in [7] was 100%; in [8], 100%; in test [9], 90%; in [10], 90%; in test [11], 60%; in [12], 70%.
